# Laboratory results taken from US11439713B2, “Method for creating a renal injury model to screen molecules for the treatment of renal injury” (BAYER AKTIENGESELLSCHAFT, priority 2017, dated 2022).
# Entries after “also recorded” stand apart in the source; their conditions may differ.
# Key:
# Type in all cases: in vivo
# C57Bl/6 mice = experiment: AGISHA model with AngII as injury inducer (ACR in urine); settings: for ACR in urine collected for 4 hours after AngII bolus injections: vs NaCl control group; for ACR in urine collected for 4 hours after first AngII bolus injections, experimental day 1: vs NaCl group
# From the text: Five groups with 10-12 mice per group (C57Bl/6, Charles River Laboratories, 6-7 weeks old) were set for one experiment. After delivery, animals remained in a temperature- and light-controlled room with standardized mouse chow and water ad libitum for a one week acclimatization period, following guidelines of local governmental institutions (LANUV Germany). The groups were divided as follows (see FIG. 1): • 1. Control group without AngII bolus injection, but with control saline and additional (oral) administration of drug vehicle (10% ethanol, 40% solutol, 50% water or saline). • 2. AngII group, treated with AngII in normal saline, and drug vehicle. AngII administration occurred in two bolus injections (i.v.+s.c.) of 10 μg (5 μg i.v.+5 μg s.c.), 16 μg (8 μg i.v.+8 μg s.c.) and 20 μg (10 μg i.v.+10 μg s.c.) per mouse, where the first bolus was injected intravenously and the second bolus subcutaneously. The drug vehicle was administered orally.
# 3. Candidate groups 3 and 4: AngII injection and additional treatment with the investigated drug/drugs. For substance testing, drugs or appropriated vehicles were administered orally, via i.v., s.c., or i.p. Administration occurred prior to or after AngII-injection. For example, investigated drug/drugs were given orally 30 minutes before the induction of the injury. • 4. Group 5 is the positive control group Animals were injected with AngII and treated orally with Losartan 30 mg/kg. Losartan is an AngII receptor blocker AT1 (Pieter B M et al, Pharma. Rev., 1993, Kang P M et al, Progress in Cardiology, 1994).
# After AngII injection animals were placed in metabolic cages (Technoplast, Italy) for urine collection for up to 4 hours. At the end of the experiment the urine was analyzed to quantify the ACR. More specifically, the collected urine was analyzed using an automatic analyzer for urinary albumin as well as urinary creatinine (Coban® Integra 400, Roche, Basel, SUI) or using the Mouse albumin ELISA kit (ABCAM, Cambridge, UK). […] The AGISHA model was performed in 3 identical cycles with a one-week break for recovery.
# Negative and positive control experiment. To confirm the findings shown in FIG. 2-4, the mode of action in AGISHA was investigated. In the following experiment, three of the animal groups were pre-treated with three different drugs by oral application 30 minutes before administration of injury inducer (see FIG. 5). • 1) Enalapril 10 mg/kg, an angiotensin-converting enzyme (ACE) inhibitor, is standard of care for high blood pressure. It was used as positive modulator control 1 of the renin-angiotensin system (RAS) in the AGISHA model. • 2) Losartan potassium, 30 mg/kg, angiotensin II type I receptor (AT1) antagonist, standard of care for high blood pressure (Kang et al, 1994; Sica D A et al, Clin Parmacokinet., 2005) was used as positive modulator control 2 of the RAS system in the AGISHA model. • 3) Tivozanib, 3 mg/kg, vascular endothelial grow factor receptor tyrosine kinase inhibitor (Campas C et al, Drugs Fut., 2009) was used as negative modulator of the RAS system during AGISHA model. […]
# The experiment was performed as described in example 5, except that the sGC stimulator 5-cyclopropyl-2-[1-(2-fluorobenzyl)-1H-pyrazolo[3,4-b]pyridin-3-yl]pyrimidin-4-amine was used for treatment. […] Losartan (30 mg/kg) was used as positive control.
# C57Bl/6/J male mice = experiment: GFBI test model with AngII (transcutaneous fluorescence of Ficoll-FITC); settings: for Half-life of the fluorescent molecule in the blood 2 h after AngII bolus injection: vs control
# Experimental: After delivery, C57Bl/6/J male mice remained in a temperature- and light-controlled room with standardized mouse chow and water ad libitum for a one week acclimatization period, following guidelines of local governmental institutions (LANUV Germany). C57Bl/6/J mice (6-7 weeks) received an intravenous mixture of FITC-FICOLL 70 kDa (Sigma) and 10 μg AngII mix 100 μL, followed by a 10 μg (100 μL) subcutaneous AngII bolus as described in example 1. The groups were divided as follows, see FIG. 17:
# 1. Control group without AngII bolus injection, but with control saline 0.9%+Ficoll-FITC 150 mg/kg and additional s c administration of a bolus of NaCl 0.9%.
# 2. AngII group, treated with AngII in two bolus injections (10 μg/mouse of AngII+Ficoll-FITC, 150 mg/kg, both dissolved in 0.9% NaCl, first bolus injected i.v. via tail vein (5 μg AngII) and a second subcutaneous bolus injection (5 μg AngII).
# 3. AngII group, treated with AngII in two bolus injections (20 μg/mouse total AngII+Ficoll-FITC, 150 mg/kg 150 mg/kg, both dissolved in 0.9% NaCl, first bolus injected i.v. via tail vein (10 μg AngII) and a second subcutaneous bolus injection (10 μg AngII).
# TF of the FICOLL-FITC was detected via the transcutaneous method developed by MediBeacon Inc. (MediBeacon Inc., Mo., USA). In brief: all experimental animals were shaved with standard mask anesthesia 1 h before the determination of TF for the FICOLL-FITC Immediately after the injury induction the portable transcutaneous measurement device was placed on the left dorsal back side of the animal for 2 hours. The results were analyzed with the MediBeacon Inc. software. […] The decay of the Ficoll-FITC dye was visualized as a flat line, with a half-life of ca. 396 minutes.
# mice [1] = experiment: GFR-based model with AngII and Sinestrin-FITC (GFR acute modulation); settings: for GFR 2 hrs after AngII bolus injection: vs control group
# From the text: Acute GFR modulation is a relevant phenomenon in the field of nephrology (Fergusan and […], Clin. Chem., 58(4), 2012, p. 680-689). GFR is the major readout parameter for chronic kidney disease (CKD) stage assessment (Lopez-Giacoman and Madero, World J Nephrol. 4(1), 2015, 57-73). The GFR is also a very stable and robust physiological parameter that is subject to positive and negative feedback regulation. The following protocol and experimental setup (FIG. 21) was established to model acute GFR modulation. 1. Control group without AngII bolus injection, but with control saline (0.9%)+[…] 150 mg/kg and additional s c administration of 0.9% NaCl (100 μl+100 μl) 2. AngII group, treated with AngII in two bolus injections: First bolus of 20 μg/mouse of AngII in normal saline administered in combination with […] 150 mg/kg, 50 μl+50 μl, injected via tail vein. Second bolus injected s.c. comprising 20 μg AngII, 100 μl. 3. Losartan group was treated orally with 30 mg/kg of Losartan Potassium, 30 min prior to the AngII injury. AngII injury occurred in two bolus injections as described for the AngII group (total 40 μg). 1. Control group without AngII bolus injection, but with control saline (0.9%)+[…] 150 mg/kg and additional s.c. administration of 0.9% NaCl (100 μl+100 μl) 2. AngII group, treated with AngII in two bolus injections: First bolus of 20 μg/mouse of AngII in normal saline administered in combination with […] 150 mg/kg, 50 μl+50 μl, injected via tail vein. Second bolus injected s.c. comprising 30 μg AngII, 100 μl. 3. Losartan group was treated orally with 30 mg/kg of Losartan Potassium, 30 min prior to the AngII injury. AngII injury occurred in two bolus injections as described for the AngII group (total 50 μg). For substance testing, animals were pre-treated with the respective drugs or vehicles 30 min before AngII-injection, via oral gavage, s.c, i.p., or tail vein injection. Subsequently, […] mix bolus was administered to the animals with the tracer (FIG. 21).
# mice [2] = experiment: GFR-based model with AVP and Sinestrin-FITC; settings: pre-treatment with Losartan 30 mg/kg; AVP 35 μg
# Experimental: A similar setup (FIG. 23) was used with AVP (Sigma-Aldrich, Mo.) at a dose of 35 μg, i.e. using a first bolus with 15 μg AVP, injected i.v. in combination with Sinestrin-FITC 150 mg/kg (50 ul+50 ul) and using a second bolus of 20 μg AVP, 100 uL, injected i.v. As before GFR, was decreased by AVP compared with the control group.
# [3] = oral 30 minutes before AngII 10 μg i.v.+10 μg s.c., Enalapril 10 mg/kg, Losartan potassium 30 mg/kg, Tivozanib 3 mg/kg, FIG. 6
# [4] = pre-treatment orally, AngII 10 μg i.v.+10 μg s.c., OGT 2115 40 mg/kg, Losartan Potassium 30 mg/kg, FIG. 10
compound,measurement,setting,value
"Asp-Arg-Val-Tyr-Ile-His-Pro-Phe (DRVYIHPF; printed: Asp-Arg-Val-Tyr-Ile-His-Pro-Phe) [AngII, human angiotensin II peptide hormone, used as renal injury inducer]",ACR in urine collected for 4 hours after AngII bolus injections,C57Bl/6 mice; AngII 8 μg i.v.+8 μg s.c.,significant induction of ACR
same,ACR in urine collected for 4 hours after AngII bolus injections,C57Bl/6 mice; AngII 10 μg i.v.+10 μg s.c.,significant induction of ACR; also recorded: significant increase of ACR
same,ACR on third experimental day after changed order of stimuli,"C57Bl/6 mice; cross AGISHA, AngII 5 μg dose (group 1) and 10 μg dose (group 2)",dose dependent increase of injury
same,"ACR in urine collected for 4 hours after first AngII bolus injections, experimental day 1","C57Bl/6 mice; cross AGISHA, AngII 5 μg i.v.+5 μg s.c.",significantly increased
same,"ACR in urine collected for 4 hours after first AngII bolus injections, experimental day 1","C57Bl/6 mice; cross AGISHA, AngII 10 μg i.v.+10 μg s.c.",significantly increased
same,"ACR on day 2, 24 hours after first induction of acute glomerular injury","C57Bl/6 mice; cross AGISHA, after AngII 5 μg or 10 μg dose",For none of the groups the analysis shows a detectable ACR
same,Half-life of the fluorescent molecule in the blood 2 h after AngII bolus injection,C57Bl/6/J male mice; AngII 10 μg,decrease in half-life of the fluorescent molecule was significant
same,Half-life of the fluorescent molecule in the blood 2 h after AngII bolus injection,C57Bl/6/J male mice; AngII 20 μg,decrease in half-life of the fluorescent molecule was significant
same,"Half-life of FICOLL-FITC transcutaneous fluorescence, representative curve","C57Bl/6/J male mice; animals treated with AngII, control (0.9% NaCl) ca. 396 minutes",ca. 180 min
same,GFR 2 hrs after AngII bolus injection,mice [1]; total 40 μg AngII (20 μg i.v.+20 μg s.c.),decreased but not significantly decreased; also recorded: decrease in GFR
same,GFR 2 hrs after AngII bolus injection,mice [1]; total 50 μg AngII (20 μg i.v.+30 μg s.c.),highly significant reduction of the GFR; also recorded: significantly reduced
COc1cc2nccc(Oc3ccc(NC(=O)Nc4cc(C)on4)c(Cl)c3)c2cc1OC [Tivozanib],Effect on ACR induced by AngII,C57Bl/6 mice; [3],no effect on ACR induced by AngII
O=C(O)CCCCN(CCc1cc(F)ccc1OCc1ccc(-c2ccc(C(F)(F)F)cc2)cc1)Cc1ccc(C(=O)O)cc1 [4-({(4-carboxybutyl)[2-(5-fluoro-2-{[4′-(trifluoromethyl)biphenyl-4-yl]methoxy}phenyl)ethyl]amino}methyl)benzoic acid],Reduction of ACR compared with the control group,C57Bl/6 mice; 3 mg/kg orally prior to AngII 10 μg i.v.+10 μg s.c.,71%
same,"AngII induced ACR, mean±SD","C57Bl/6 mice; 3 mg/kg orally prior to AngII 10 μg i.v.+10 μg s.c., urine 4 hours",35 ± 26 µg/mg
CCCCc1nc(Cl)c(CO)n1Cc1ccc(-c2ccccc2-c2nn[nH]n2)cc1 [Losartan],Reduction of AngII induced ACR,"C57Bl/6 mice; Losartan 30 mg/kg orally, positive control, AngII 10 μg i.v.+10 μg s.c.",around 90%
same,Effect on AngII-induced ACR induction,"C57Bl/6 mice; Losartan 30 mg/kg orally, FIG. 2 experiment",AngII bolus had no effect on ACR; also recorded: prevents AngII-induced ACR induction
same,Effect on ACR induced by AngII,C57Bl/6 mice; [3],highly significant reduction of AngII induced injury
same,Effect on ACR induced by AngII,"C57Bl/6 mice; oral 30 minutes before AngII 10 μg i.v.+10 μg s.c., Enalapril 10 mg/kg, Losartan potassium 30 mg/kg, Tivozanib 3 mg/kg, FIG. 6, listed as Losartan potassium",strongest effect
same,Effect on ACR induced by AngII,C57Bl/6 mice; [4],highly significant reduction of AngII induced injury
same,Effect on AngII induced loss of GFR,mice [1]; Losartan Potassium 30 mg/kg orally 30 min prior to AngII total 40 μg,AngII bolus had no effect on the GFR; also recorded: able to completely reverse the effect
same,Effect on AngII induced loss of GFR,mice [1]; Losartan Potassium 30 mg/kg orally 30 min prior to AngII total 50 μg,restored the GFR; also recorded: significant recovery of AngII induced loss of GFR
same,Effect on AVP induced loss of GFR,mice [2],did not restore the normal GFR; also recorded: did not restore or prevent the AVP induced loss of GFR
CCOC(=O)[C@H](CCc1ccccc1)N[C@@H](C)C(=O)N1CCC[C@H]1C(=O)O [Enalapril],Effect on ACR induced by AngII,C57Bl/6 mice; [3],significantly reduced
O=C(O)Cc1ccc2oc(-c3ccc(NC(=O)/C=C/c4ccc(Br)cc4)c(F)c3)nc2c1 [OGT2115],Effect on ACR induced by AngII,C57Bl/6 mice; [4],significantly reduced
